{"source": "patent US9463242B2", "about": "“Methods for treating prostate cancer” (UNIVERSITY OF ROCHESTER, priority 2011, dated 2016)", "key": {"[1]": {"tested_on": "PCa S/P cells (LNCaP CD133+)", "assay": "MTT growth assay of prostate cancer S/P cells treated with inhibitors", "format": "cell-based, human", "conditions": "for IC50: Homo sapiens, LNCaP; for inhibitory effect on proliferation of the S/P cells: used individually", "description": "For an MTT assay, cells were incubated in 12- or 24-well culture plates (10^5-10^3 cells/well) and cultured. At 2, 4, and 6 days, 3-(4,5-dimethylthiazol-2-yl)-2,5-diphenyltetrazolium bromide (MTT; 0.5 mg/mL; Sigma) was added. After 2 hours of reaction, absorbances at 570 nm were measured. For soft agar colony formation assay, cell suspension (1×10^4 cells/well in 6 well culture plates) of mixture of 1.5% agarose (Cambrex Bio Science Rockland, Ill.) and 2× medium (2 ml) was overlaid onto the solidified mixture of agarose base (final agarose concentration will be 0.75%). Two mL of normal medium containing various concentrations of DHT was added on top of the solidified agarose cell layer. All conditions were performed in triplicate. The plates were incubated at 37° C. in a humidified incubator for 21 days. The colonies developed were visualized by staining with 1% crystal violet. The colonies larger than 1 mm in diameter were counted. For sphere formation assay, a single cell suspension (1×10^3, in 50 μl medium) was mixed with cold Matrigel 50 μl (kept on ice) and the mixture was placed along the rim of the 24 well with minimum triplicate experiments. The culture plates were placed in a 37° C. incubator for 10 min to let the mixture solidify and 500 μl medium was then added into the well. Cells were grown in 5% RPMI (for human PCa S/P cells) and epithelial basal medium (PrEBM) (Lonza) supplemented with growth supplement (Lonza) (for mouse cells) with addition of various concentrations of DHT (1 or 10 nM). Spheres numbers were counted after 7 to 14 days under Olympus light microscope and size differences were also examined.\nThe effect of combined use of these molecules to block self-renewal/proliferation of the S/P cells was tested. […] The effect of a combinations of two drugs selected among three drugs, LY294002 (inhibitor of Akt pathway), γ-TT, and 5-AZA was tested. […] The test results of the combination therapies using soft agar (FIG. 19C) and sphere formation assays (FIG. 19D) confirmed the MTT results. One method of two drug combination therapy was selected based on these three growth assays. This combination is the use of γ-TT and 5-AZA. From all the in vitro tests including an LD test, a minimum dose of these drugs that kills S/P cells was determined. This strategy was used for an in vivo study. When tumors developed the mice were castrated and ASC-J9 was injected, Two or three combinations of the drugs that target S/P population cells were administered. A tumor development curve indicated the recurrence of castration resistant tumors."}, "[2]": {"tested_on": "AR expression in LNCaP CD133+ cells", "assay": "Induction of AR expression in LNCaP CD133+ cells", "format": "cell-based, human"}, "[3]": {"conditions": "stated as known; cited from earlier work"}, "AR": {"biological_target": "T1, AR (Homo sapiens, UniProt P10275)", "T1 sequence (P10275 1-920)": "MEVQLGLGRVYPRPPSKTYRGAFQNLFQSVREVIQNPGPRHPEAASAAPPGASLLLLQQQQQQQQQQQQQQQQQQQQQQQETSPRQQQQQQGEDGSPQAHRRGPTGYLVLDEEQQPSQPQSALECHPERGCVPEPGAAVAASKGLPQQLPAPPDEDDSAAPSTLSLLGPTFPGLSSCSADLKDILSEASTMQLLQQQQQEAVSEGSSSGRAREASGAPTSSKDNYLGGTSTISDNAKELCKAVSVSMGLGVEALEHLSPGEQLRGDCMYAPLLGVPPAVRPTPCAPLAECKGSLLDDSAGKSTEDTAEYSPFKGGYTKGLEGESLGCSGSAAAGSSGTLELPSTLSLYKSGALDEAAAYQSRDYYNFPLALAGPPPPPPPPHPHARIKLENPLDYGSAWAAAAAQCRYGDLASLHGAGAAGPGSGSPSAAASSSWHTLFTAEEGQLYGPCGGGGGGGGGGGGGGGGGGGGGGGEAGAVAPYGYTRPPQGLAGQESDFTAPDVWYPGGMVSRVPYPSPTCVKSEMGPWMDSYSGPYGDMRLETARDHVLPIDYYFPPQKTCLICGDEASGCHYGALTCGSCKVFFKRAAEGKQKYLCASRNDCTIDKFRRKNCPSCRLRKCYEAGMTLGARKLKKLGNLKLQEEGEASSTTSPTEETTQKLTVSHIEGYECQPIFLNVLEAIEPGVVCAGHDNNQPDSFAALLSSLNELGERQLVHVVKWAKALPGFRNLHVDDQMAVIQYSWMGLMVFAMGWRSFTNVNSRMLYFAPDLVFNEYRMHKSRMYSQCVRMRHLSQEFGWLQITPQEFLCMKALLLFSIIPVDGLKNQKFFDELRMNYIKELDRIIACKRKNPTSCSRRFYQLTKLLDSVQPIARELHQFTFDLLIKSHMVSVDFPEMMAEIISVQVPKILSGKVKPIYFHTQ", "conditions": "stated as known; cited from earlier work"}, "C4-2 cells": {"tested_on": "C4-2 cells", "assay": "CD133+ population after Casodex treatment, C4-2", "format": "cell-based, human", "conditions": "C4-2, Casodex treatment", "description": "(§1) In order to investigate whether S/P cell numbers increase after ADT/castration, LNCaP cells were treated with anti-androgen, Casodex, to mimic castration conditions in vitro. […] Similar experiments were performed with C4-2 and LAPC-4 cell lines."}, "LNCaP cells": {"tested_on": "LNCaP cells", "assay": "CD133+ population after continuous Casodex treatment, LNCaP", "format": "cell-based, human", "conditions": "Casodex for 5 wks continuously", "description": "as §1"}, "[4]": {"tested_on": "MyoD and Myogenin expression in primary cultured human prostate stromal cells", "assay": "Expression of smooth muscle maturation genes after TGF-β1 treatment", "format": "cell-based", "conditions": "10 ng/ml TGF-β1 treatment", "description": "(§2) In FIG. 5a, the expression of TGF-β1 was investigated by IHC staining. The decreased expression of TGF-β1 was found in pes-ARKO epithelium. […] In FIG. 5c, to evaluate the TGF-β1 effect on the differentiation of smooth muscle cells, the primary cultured human prostate stromal cells were treated with different doses of TGF-β1. The expression of smooth muscle α-actin, as shown in FIG. 5c and FIG. 5d, and calponin, as shown in FIG. 5e and FIG. 5f, were detected following treatment for 1 to 5 days.\n(§3) The expression of TGF-β1 (FIG. 5a) and TGF-β1 downstream signals was detected by immunohistochemistry (IHC) staining in 24 week old wild type and pes-ARKO prostate epithelium. The TGF-β1 expression and its downstream signals were lower in the epithelium of pes-ARKO mice than those from wild type mice. […] MyoD and Myogenin expression, which are deeply involved in the stromal smooth muscle maturation and differentiation, was also modulated by TGF-β1 stimulation (FIG. 5g)."}, "[5]": {"tested_on": "primary cultured human stromal cells (ps-1)", "assay": "TGF-β1 treatment of primary cultured human prostate stromal cells, α-SMA and calponin staining", "format": "cell-based", "conditions": "different concentrations of TGF-β1 for 1 to 5 days", "description": "as §2, §3"}}, "note": "“Also recorded” adds a separate entry of the source. Where two headings read alike, the source gives them in different places.", "data": [{"molecule": "Nc1ncn([C@H]2C[C@H](O)[C@@H](CO)O2)c(=O)n1", "note": "[5-AZA, 5-aza-2′-deoxycytidine]", "values": [{"measurement": "IC50", "setting": "[1]; read-out: IC50 of the individual compound", "result": "2.5 to 5", "unit": "µM"}, {"measurement": "inhibitory effect on proliferation of the S/P cells", "setting": "[1]", "result": "inhibits proliferation"}, {"measurement": "AR expression", "setting": "[2]", "result": "Induction of AR expression"}]}, {"molecule": "COc1ccc(/C=C/C(=O)/C=C(O)/C=C/c2ccc(OC)c(OC)c2)cc1OC", "note": "[ASC-J9]", "values": [{"measurement": "toxicity", "setting": "[3]", "result": "without toxicity"}, {"measurement": "AR degrading activity", "setting": "AR", "result": "AR degrading activity"}]}, {"molecule": "CC(O)(CS(=O)(=O)c1ccc(F)cc1)C(=O)Nc1ccc(C#N)c(C(F)(F)F)c1", "note": "(stereo not drawn) [Casodex]", "values": [{"measurement": "CD133+ population cells", "setting": "C4-2 cells", "result": "not as significant as in LNCaP cells"}, {"measurement": "CD133+ population cells", "setting": "LNCaP cells", "result": "significantly increased; also recorded: increase"}]}, {"molecule": "O=c1cc(N2CCOCC2)oc2c(-c3ccccc3)cccc12", "note": "[LY294002]", "values": [{"measurement": "IC50", "setting": "[1]; LY294002 + γ-TT + 5-AZA together, S/P cells, MTT, read-out: IC50 of the individual compound when three compounds were used together", "result": "< 1", "unit": "µM"}, {"measurement": "IC50", "setting": "[1]; compound used alone, S/P cells, MTT, read-out: IC50 of the individual compound", "result": "2.5 to 5", "unit": "µM"}]}, {"molecule": "CC(C)=CCC/C(C)=C/CC/C(C)=C/CC[C@]1(C)CCc2cc(O)c(C)c(C)c2O1", "note": "[γ-TT, γ-tocotrienol]", "values": [{"measurement": "inhibitory effect on proliferation of the S/P cells", "setting": "[1]", "result": "inhibitory effect"}]}, {"molecule": "TGF-β1: TGF-β1 protein used to treat primary cultured human prostate stromal cells", "values": [{"measurement": "MyoD and Myogenin expression", "setting": "[4]", "result": "modulated"}, {"measurement": "number of mature stromal smooth muscle cells (α-SMA and calponin staining)", "setting": "[5]", "result": "significantly dependent on the higher concentration and longer duration"}]}]}
